According to the supplement of paper PMC10307832:

How the values were obtained:
Test in all cases: relative viability (nuclei count vs DMSO), 5 days (fraction); higher = more cells survive
Neratinib + Luminespib = compound: CCOc1cc2ncc(C#N)c(Nc3ccc(OCc4ccccn4)c(Cl)c3)c2cc1NC(=O)/C=C/CN(C)C [Neratinib] + CCNC(=O)c1noc(-c2cc(C(C)C)c(O)cc2O)c1-c1ccc(CN2CCOCC2)cc1 [Luminespib] (partner 0.01 µM)
Outline: (§1)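 Relative viability is defined as nuclei in treated wells over nuclei in vehicle wells. Duplicate plates were run and medians reported. Lung cancer cell lines in 1536-well plates were dosed by pin tool one day after seeding, with one drug or with a fixed anchor-drug dose plus five library-drug doses (not always all listed) in √10 steps, and nuclei were counted after 5 days.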

Neratinib + OSI-027 = compound: CCOc1cc2ncc(C#N)c(Nc3ccc(OCc4ccccn4)c(Cl)c3)c2cc1NC(=O)/C=C/CN(C)C [Neratinib] + COc1cccc2cc(-c3nc([C@H]4CC[C@H](C(=O)O)CC4)n4ncnc(N)c34)[nH]c12 [OSI-027] (partner 0.5 µM)
Outline: as §1

Neratinib + Lapatinib = compound: CCOc1cc2ncc(C#N)c(Nc3ccc(OCc4ccccn4)c(Cl)c3)c2cc1NC(=O)/C=C/CN(C)C [Neratinib] + CS(=O)(=O)CCNCc1ccc(-c2ccc3ncnc(Nc4ccc(OCc5cccc(F)c5)c(Cl)c4)c3c2)o1 [Lapatinib] (partner 2 µM)
Outline: as §1

Neratinib + Linsitinib = compound: CCOc1cc2ncc(C#N)c(Nc3ccc(OCc4ccccn4)c(Cl)c3)c2cc1NC(=O)/C=C/CN(C)C [Neratinib] + C[C@]1(O)C[C@@H](c2nc(-c3ccc4ccc(-c5ccccc5)nc4c3)c3c(N)nccn32)C1 [Linsitinib] (partner 1 µM)
Outline: as §1

Cell Line | relative viability (Neratinib + Luminespib; first compound 0.01 µM) | relative viability (Neratinib + Luminespib; first compound 0.03162 µM) | relative viability (Neratinib + Luminespib; first compound 0.1 µM) | relative viability (Neratinib + Luminespib; first compound 0.3162 µM) | relative viability (Neratinib + Luminespib; first compound 1 µM) | relative viability (Neratinib + OSI-027; first compound 0.01 µM) | relative viability (Neratinib + OSI-027; first compound 0.03162 µM) | relative viability (Neratinib + OSI-027; first compound 0.1 µM) | relative viability (Neratinib + OSI-027; first compound 0.3162 µM) | relative viability (Neratinib + OSI-027; first compound 1 µM) | relative viability (Neratinib + Lapatinib; first compound 0.01 µM) | relative viability (Neratinib + Lapatinib; first compound 0.03162 µM) | relative viability (Neratinib + Lapatinib; first compound 0.1 µM) | relative viability (Neratinib + Lapatinib; first compound 0.3162 µM) | relative viability (Neratinib + Lapatinib; first compound 1 µM) | relative viability (Neratinib + Linsitinib; first compound 0.03162 µM) | relative viability (Neratinib + Linsitinib; first compound 0.1 µM) | relative viability (Neratinib + Linsitinib; first compound 0.3162 µM) | relative viability (Neratinib + Linsitinib; first compound 1 µM) | relative viability (Neratinib + Linsitinib; first compound 0.01 µM)
SK-MES-1 | 1.08 | 0.437 | 0.428 | 0.267 | 0.187 | 0.566 | 0.687 | 0.538 | 0.305 | 0.185 | 0.512 | 0.479 | 0.393 | 0.435 | 0.364 | 1.09 | 0.888 | 0.507 | 0.395 | –
NCI-H1666 | – | 0.951 | – | 0.752 | 0.846 | 0.901 | 0.905 | 0.751 | 0.552 | 0.683 | 1.02 | 0.769 | 0.546 | 0.673 | 0.596 | 0.654 | 0.591 | 0.372 | 0.361 | 0.876
NCI-H1355 | 0.709 | 0.821 | 0.725 | 0.6 | 0.465 | 0.402 | 0.379 | 0.346 | 0.358 | 0.277 | 1.09 | 1.06 | 1.04 | 0.984 | 0.938 | 0.825 | 0.775 | 0.63 | 0.453 | 0.894
HCC-827 | 1.08 | 1.03 | 0.703 | 0.176 | 0.18 | 0.81 | 0.774 | 0.721 | 0.508 | 0.16 | 0.223 | 0.229 | 0.17 | 0.174 | 0.165 | 0.971 | 0.933 | 0.931 | 0.221 | 1
HARA | 0.685 | 0.743 | 0.662 | 0.271 | 0.117 | 0.533 | 0.527 | – | 0.225 | 0.129 | 0.994 | 0.73 | 0.339 | 0.569 | 0.712 | 0.91 | 0.356 | 0.338 | 0.182 | 0.94
NCI-H2405 | 0.859 | 0.73 | 0.562 | 0.577 | 0.354 | 0.666 | 0.653 | 0.566 | 0.69 | 0.496 | 1.26 | 1.04 | 1.04 | 1.16 | 0.804 | 1.03 | 0.836 | 0.792 | 0.469 | 0.945
NCI-H1975 | 0.289 | 0.174 | 0.311 | 0.123 | 0.186 | 0.826 | 0.921 | 0.629 | 0.25 | 0.177 | 1.09 | 0.972 | 0.609 | 0.403 | 0.191 | 1.12 | 0.78 | 0.285 | 0.223 | 1.13
NCI-H647 | 0.308 | 0.128 | 0.0778 | 0.153 | 0.118 | 0.831 | 0.738 | 0.593 | 0.483 | 0.175 | 0.989 | 1.27 | 0.857 | 1 | 0.802 | 1.16 | 1.14 | 1.07 | 0.601 | 1.08
ABC-1 | 0.337 | 0.659 | 0.405 | 0.315 | 0.278 | 0.436 | 0.441 | 0.47 | 0.42 | 0.214 | 1.44 | 1.15 | 1.21 | 1.05 | 0.629 | – | 0.611 | 0.433 | 0.292 | 0.781
A-427 | 1.23 | 0.966 | 0.778 | 1.02 | 0.274 | 0.487 | 0.499 | 0.467 | 0.332 | 0.218 | 1.08 | 1.12 | 0.972 | 1 | 0.998 | 1.19 | 1.11 | 1.07 | 0.731 | 1.13
LCLC-97TM1 | 0.823 | 0.837 | 0.762 | 0.684 | 0.589 | 0.615 | 0.537 | 0.547 | 0.346 | 0.27 | 1.29 | 1.01 | 1.02 | 0.637 | 0.275 | 0.194 | 0.165 | 0.161 | 0.155 | 0.215
HCC-15 | 0.347 | 0.377 | 0.274 | 0.339 | 0.161 | 0.707 | 0.794 | 0.6 | 0.559 | 0.511 | 0.947 | 1.01 | 0.715 | 0.756 | 0.725 | 0.913 | 0.776 | 0.81 | 0.551 | 0.894
NCI-H727 | 0.382 | 0.337 | 0.328 | 0.312 | 0.352 | 0.58 | 0.68 | 0.466 | 0.638 | 0.406 | 0.898 | 0.994 | – | 0.928 | 0.786 | 0.282 | – | 0.286 | 0.255 | 0.244
NCI-H596 | 1.04 | 1.04 | 1.02 | 1.02 | 0.758 | 0.771 | 0.822 | 0.686 | 0.704 | 0.386 | 1.2 | 1.06 | – | 1.13 | 0.859 | 1.07 | 0.995 | 0.923 | 0.791 | 1.2
NCI-H1651 | 0.723 | 1.32 | 0.654 | 0.896 | 0.546 | 0.769 | 0.838 | 0.627 | 0.564 | 0.337 | 0.881 | 1.01 | 0.77 | – | 0.68 | 0.925 | 0.911 | 0.747 | 0.786 | 1.13
NCI-H1792 | 0.458 | 0.466 | 0.365 | 0.358 | 0.381 | 0.825 | 0.87 | 0.698 | 0.692 | 0.424 | 1.02 | 1.08 | 0.547 | 0.81 | 0.849 | 0.468 | 0.53 | 0.489 | 0.463 | 0.505
